The source of these data is patent US11406631B2, “Hydrazone derivatives for preventing or treating EBV-related cancers” (Universite de Bretagne Occidentale, priority 2018, dated 2022).

Assay [1] has as its system quadruplex RNA F-EBNA1-T. Briefly: FRET-melting assay. It counts as binding, Epstein-Barr virus. The following applies: for ΔTm, ligand + 3 μM ds26 / ΔTm, ligand + 10 μM ds26 / ΔTm, ligand alone: F-EBNA1-T 0.2 μM, ligand 1.0 μM, K+10 buffer; for ΔTm, ligand + 3 μM ds26: competitor DNA ds26 3 μM (15 eq); for ΔTm, ligand + 10 μM ds26: competitor DNA ds26 10 μM (50 eq); for ΔTm, ligand alone: no competitor; for affinity for the G-quadruplex structure of EBNA1 (in words, FRET-melting data): conclusion from Table 2. The text has this:
The FRET-melting assay is based on thermal denaturation of G4-ARN monitored by fluorescence due to the phenomenon of Förster Resonance Energy Transfer (FRET). This method uses quadruplex-forming RNA sequence dual-labeled with two different fluorophores: a donor (fluorescein, or FAM) and an acceptor (tetramethylrhodamine, or TAMRA). When RNA is folded into G-quadruplex (G4) structure, fluorescence of the donor fluorophore is weak due to strong energy transfer (FRET) to the neighboring acceptor fluorophore. Upon thermal denaturation, the quadruplex unfolds and the fluorophores are separated, leading to decrease of the FRET effect and increase of the fluorescence of the donor (see FIG. 2). By following the fluorescence of the donor as a function of temperature, a melting curve of the G-quadruplex RNA can be obtained, which allows determining the temperature of denaturation at which 50% of the quadruples is unfolded (T1, FIG. 3).
The FRET-melting assay allows assessing the affinity of small molecules (ligands) for the G4-RNA. The addition of a G4-ligand stabilizes the G-quadruplex structure and increases the denaturation temperature. The temperature of denaturation in the presence of ligands (T2) can be compared with that obtained in the absence of ligands (T1). The value of ΔTm (ΔTm=T2−T1) represents a measure of the affinity of the compounds of the invention (ligand). Generally, values of ΔTm>20° C. correspond to ligands of high affinity.
The dual-labeled oligoribonucleotide EBNA1 [5′-FAM-r(GGGGCAGGAGCAGGAGGA)-TAMRA-3′] (SEQ ID no 2) purified by reversed-phase HPLC was purchased from Eurogentec. The donor fluorophore was 6-carboxyfluorescein (FAM) and the acceptor fluorophore was 6-carboxytetramethylrhodamine (TAMRA).
Stock solutions of the ligands (2 mM in DMSO) were used for FRET-melting assay, unless otherwise stated, and were stored at −20° C. FRET-melting measurements are performed on 7900HT Fast Real-Time PCR System (Applied Biosystems) with Microamp Fast optical 96-well reaction plate (Applied Biosystems).
Preparation of Oligonucleotides For FRET-melting assay, oligoribonucleotide F-EBNA1-T was dissolved in K^+10 buffer (10 mM lithium cacodylate buffer, pH 7.3, supplemented with 10 mM KCl and 90 mM LiCl).
Prior to use, all oligonucleotides were pre-treated by heating at 95° C. for 5 min, then rapidly cooled to 4° C. to favor the intramolecular folding by kinetic trapping. Duplex-DNA ds26 (5′CAA-TCG-GAT-CGA-ATT-CGA-TCC-GAT-TG-3′) (SEQ ID no 3) was prepared by heating this self-complementary strand at 90° C. for 5 min in K^+10 buffer followed by a slow cooling over 6 h.
FRET-melting assay is performed in 96-well plates on real time PCR apparatus 7900HT Fast Real-Time PCR System using the heating ramp as follow: 5 min at 25° C., then increase of 0.5° C. every minute until 95° C. Each experimental condition was tested in duplicated in a volume of 25 μL for each sample. The 96-well plates (Applied Biosystems) were prepared by aliquoting the annealed RNA (24 μL of 0.21 μM solution in K^+10 buffer) into each well, followed by 1 μL of ligand solution (25 μM in K^+10 buffer). For competition experiments, duplex competitors were added to 200 nM quadruplex sequences at final concentrations of 3.0 μM (15 eq) and 10.0 μM (50 eq), with a total reaction volume of 25 μL, with the labeled oligoribonucleotide (0.2 μM) and the ligand (1.0 μM). Measurements were made with excitation at 492 nm and detection at 516 nm. The change in the melting temperature in the presence of 1.0 μM putative ligand, ΔTm (1.0 μM), was calculated from at least two experiments by subtraction of the blank from the averaged melting temperature of each compound (1.0 μM).
The results are shown in FIG. 4 and in Table 2 below (higher ΔTm values indicate higher affinity of the compounds to G4-RNA structure of EBNA1).

Assay [2] relates to interaction between NCL and the G4s of EBNA1 mRNA. Briefly: Proximity ligation assay (PLA) in H1299 cells transfected with EBNA1 plasmids. It counts as cell-based. The following applies: 5 μM. An excerpt:
Stars indicate significant results (the higher the number of stars, the more significant).

Assay [3] concerns GAr-based inhibition of protein expression. The experiment in a line: SDS-PAGE and western blot of 235GAr-OVA and OVA in transfected H1299 cells. Type of assay: cell-based. The text has this: The aim of these experiments is to assess the effect of the inventive compounds on the GAr-based inhibition of protein expression. For this purpose, H1299 cells were transfected by plasmids allowing expression of either EBNA1 or, as a control EBNA1ΔGAr and then treated, or not by various concentrations of the indicated compounds. […] Compounds able to interfere with GAr-based inhibition of translation will increase the steady state level of EBNA1, whereas a having no effect on EBNA1ΔGAr.
The ratio of the quantity of OVA or GAr-OVA relatively to GAPDH (the loading control) are indicated below the gel.
(Immunoblotting shows a protein as a band on a membrane.)

The structures appear in SMILES notation.

With `C[n+]1ccc(C=NNC(=O)c2ccc3ccc4ccc(C(=O)NN=Cc5cc[n+](C)c6ccccc56)nc4c3n2)c2ccccc21.[I-].[I-]` [Compound 11a, N′^2,N′^9-Bis[(1-methylquinolinium-4-yl)methylene]-1,10-phenanthroline-2,9-dicarbohydrazide iodide], in assay [1], the “ΔTm, ligand + 3 μM ds26” value worked out at 21.1 ± 0.6 °C; the “ΔTm, ligand + 10 μM ds26” value was 19.3 ± 1.1 °C; the “ΔTm, ligand alone” value is 21.5 ± 0.2 °C; the “affinity for the G-quadruplex structure of EBNA1 (in words, FRET-melting data)” value is “particularly high affinity”. Further, in assay [2], the “number of PLA dots and their intensity” value is “significantly reduce”; the “number of nuclear PLA dots per cell” value is reported as “significantly reduced”.

As for `C[n+]1ccc(C=NNC(=O)c2cccc(C(=O)NN=Cc3cc[n+](C)c4ccccc34)n2)c2ccccc21.[I-].[I-]` [Compound 2a, N′^2, N′^6-Bis[(1-methylquinolinium-4-yl)methylene]pyridine-2,6-dicarbohydrazide iodide], in assay [1], the “ΔTm, ligand + 3 μM ds26” value worked out at 16.1 ± 0.4 °C; the “ΔTm, ligand + 10 μM ds26” value was 14.2 ± 0.7 °C; the “ΔTm, ligand alone” value was 16.4 ± 0.4 °C; the “affinity for the G-quadruplex structure of EBNA1 (in words, FRET-melting data)” value was “particularly high affinity”. Further, in assay [2], the “number of PLA dots and their intensity” value was “significantly reduce”; the “number of nuclear PLA dots per cell” value is “significantly reduced”. In addition, the OVA expression entry in assay [3] (control without GAr) was “no significant effect”. In addition, the “steady-state level of 235GAr-OVA” value in assay [3] (dose-dependent, relative to GAPDH) is listed as “significant increase”.
